Assay results from the supplement of paper PMC10307832.

Tests used:
Test in all cases: relative viability (nuclei count vs DMSO), 5 days (fraction); higher = more cells survive
Omipalisib + Navitoclax = compound: COc1ncc(-c2ccc3nccc(-c4ccnnc4)c3c2)cc1NS(=O)(=O)c1ccc(F)cc1F [Omipalisib] + CC1(C)CCC(c2ccc(Cl)cc2)=C(CN2CCN(c3ccc(C(=O)NS(=O)(=O)c4ccc(N[C@H](CCN5CCOCC5)CSc5ccccc5)c(S(=O)(=O)C(F)(F)F)c4)cc3)CC2)C1 [Navitoclax] (partner 0.5 µM)
Procedure, shortened: (§1)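 Each reported value is a median over duplicate plates. It expresses relative viability: treated-well nuclei count divided by vehicle-well nuclei count. Lung cancer cell lines in 1536-well plates were dosed by pin tool a day after seeding, alone with one drug or with a fixed anchor-drug dose plus five library-drug doses (not always all listed) in √10 steps, and nuclei were counted after 5 days.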

Omipalisib + Luminespib = compound: COc1ncc(-c2ccc3nccc(-c4ccnnc4)c3c2)cc1NS(=O)(=O)c1ccc(F)cc1F [Omipalisib] + CCNC(=O)c1noc(-c2cc(C(C)C)c(O)cc2O)c1-c1ccc(CN2CCOCC2)cc1 [Luminespib] (partner 0.01 µM)
Procedure, shortened: as §1

Omipalisib + Crizotinib = compound: COc1ncc(-c2ccc3nccc(-c4ccnnc4)c3c2)cc1NS(=O)(=O)c1ccc(F)cc1F [Omipalisib] + C[C@@H](Oc1cc(-c2cnn(C3CCNCC3)c2)cnc1N)c1c(Cl)ccc(F)c1Cl [Crizotinib] (partner 1 µM)
Procedure, shortened: as §1

Omipalisib + AZD7762 = compound: COc1ncc(-c2ccc3nccc(-c4ccnnc4)c3c2)cc1NS(=O)(=O)c1ccc(F)cc1F [Omipalisib] + NC(=O)Nc1cc(-c2cccc(F)c2)sc1C(=O)N[C@H]1CCCNC1 [AZD7762] (partner 0.2 µM)
Procedure, shortened: as §1

Omipalisib + Pemetrexed = compound: COc1ncc(-c2ccc3nccc(-c4ccnnc4)c3c2)cc1NS(=O)(=O)c1ccc(F)cc1F [Omipalisib] + Nc1nc2[nH]cc(CCc3ccc(C(=O)N[C@@H](CCC(=O)O)C(=O)O)cc3)c2c(=O)[nH]1 [Pemetrexed] (partner 0.2 µM)
Procedure, shortened: as §1

Omipalisib + Vorinostat = compound: COc1ncc(-c2ccc3nccc(-c4ccnnc4)c3c2)cc1NS(=O)(=O)c1ccc(F)cc1F [Omipalisib] + O=C(CCCCCCC(=O)Nc1ccccc1)NO [Vorinostat] (partner 1 µM)
Procedure, shortened: as §1

Cell Line | relative viability (Omipalisib + Navitoclax; first compound 0.0003 µM) | relative viability (Omipalisib + Navitoclax; first compound 0.003 µM) | relative viability (Omipalisib + Navitoclax; first compound 0.03 µM) | relative viability (Omipalisib + Luminespib; first compound 0.0003 µM) | relative viability (Omipalisib + Luminespib; first compound 0.003 µM) | relative viability (Omipalisib + Luminespib; first compound 0.03 µM) | relative viability (Omipalisib + Crizotinib; first compound 0.0003 µM) | relative viability (Omipalisib + Crizotinib; first compound 0.003 µM) | relative viability (Omipalisib + Crizotinib; first compound 0.03 µM) | relative viability (Omipalisib + AZD7762; first compound 0.0003 µM) | relative viability (Omipalisib + AZD7762; first compound 0.003 µM) | relative viability (Omipalisib + AZD7762; first compound 0.03 µM) | relative viability (Omipalisib + Pemetrexed; first compound 0.0003 µM) | relative viability (Omipalisib + Pemetrexed; first compound 0.003 µM) | relative viability (Omipalisib + Pemetrexed; first compound 0.03 µM) | relative viability (Omipalisib + Vorinostat; first compound 0.0003 µM) | relative viability (Omipalisib + Vorinostat; first compound 0.003 µM) | relative viability (Omipalisib + Vorinostat; first compound 0.03 µM)
NCI-H1651 | 0.834 | 0.752 | 0.484 | 0.64 | 0.648 | 0.565 | 0.749 | 0.762 | 0.569 | 0.521 | 0.434 | 0.359 | 0.55 | 0.506 | 0.433 | 0.517 | 0.457 | 0.437
NCI-H2126 | 0.82 | 0.594 | 0.375 | 0.825 | 0.567 | 0.338 | 0.965 | 0.866 | 0.559 | 1.02 | 0.795 | 0.657 | 0.652 | 0.537 | 0.38 | 0.718 | 0.442 | 0.348
LCLC-103H |  |  |  | 0.999 | 0.714 | 0.427 | 1.07 | 0.922 | 0.63 | 0.747 | 0.623 | 0.402 | 0.503 | 0.411 | 0.405 | 0.848 | 0.554 | 0.43
NCI-H358 |  |  |  | 0.325 | 0.221 | 0.0986 | 0.502 | 0.6 | 0.303 | 0.43 | 0.366 | 0.244 | 0.182 | 0.164 | 0.131 | 0.573 | 0.546 | 0.272
NCI-H1793 | 0.368 | 0.29 | 0.204 | 0.19 | 0.159 | 0.159 |  |  |  | 0.402 | 0.215 | 0.263 | 0.696 | 0.463 | 0.24 | 0.649 | 0.438 | 0.231
HCC-78 | 0.68 | 0.466 | 0.193 |  |  |  | 0.299 | 0.232 | 0.192 | 0.593 | 0.508 | 0.281 | 0.88 | 0.927 | 0.922 | 0.334 | 0.337 | 0.246
HCC-366 | 1.03 | 0.341 | 0.12 |  |  |  | 0.365 | 0.0929 | 0.041 | 0.288 | 0.208 | 0.184 | 0.214 | 0.257 | 0.171 | 0.394 | 0.223 | 0.113
NCI-H520 | 0.972 | 0.714 | 0.292 | 0.208 | 0.232 | 0.212 | 0.636 | 0.622 | 0.193 |  |  |  | 0.58 | 0.433 | 0.184 | 0.623 | 0.458 | 0.214
NCI-H661 |  |  |  | 0.938 | 1.01 | 0.833 | 0.969 | 0.94 | 0.703 |  |  |  | 0.925 | 0.9 | 0.761 | 0.78 | 0.782 | 0.785
NCI-H2228 | 0.972 | 0.581 | 0.204 | 0.131 | 0.0865 | 0.11 | 0.335 | 0.337 | 0.215 |  |  |  | 0.351 | 0.306 | 0.221 | 0.75 | 0.498 | 0.162
COR-L23 | 1.15 | 0.778 | 0.432 | 0.616 | 0.608 | 0.277 | 0.794 | 0.667 | 0.292 |  |  |  | 0.2 | 0.2 | 0.197 | 0.404 | 0.377 | 0.242
NCI-H2009 | 1.22 | 1.14 | 0.897 | 1.04 | 1.02 | 0.874 | 0.989 | 0.923 | 0.742 |  |  |  | 1.04 | 1.15 | 0.892 | 0.674 | 0.689 | 0.573
NCI-H1395 | 1.35 | 0.991 | 0.665 | 0.622 | 0.662 | 0.418 |  |  |  | 0.424 | 0.398 | 0.379 | 0.737 | 0.657 | 0.602 | 0.716 | 0.525 | 0.523
NCI-H2342 |  |  |  | 0.622 | 0.45 | 0.446 |  |  |  | 0.47 | 0.434 | 0.383 | 0.69 | 0.568 | 0.451 | 0.678 | 0.536 | 0.499
NCI-H650 |  |  |  | 0.81 | 0.592 | 0.378 | 0.671 | 0.472 | 0.338 | 0.817 | 0.766 | 0.7 | 0.903 | 0.634 | 0.453 | 0.325 | 0.337 | 0.186
SW 900 |  |  |  | 0.189 | 0.171 | 0.166 |  |  |  | 0.748 | 0.381 | 0.342 | 0.508 | 0.456 | 0.487 | 0.523 | 0.484 | 0.316
SK-LU-1 | 0.926 | 0.237 | 0.625 | 0.206 | 0.199 | 0.19 | 0.91 | 0.712 | 0.515 |  |  |  | 1.04 | 0.834 | 0.751 | 0.758 | 0.561 | 0.535
NCI-H2023 | 0.959 | 0.633 | 0.313 | 0.619 | 0.44 | 0.155 | 0.569 | 0.407 | 0.18 |  |  |  | 0.208 | 0.197 | 0.139 | 0.356 | 0.454 | 0.161
SW 1573 | 0.921 | 0.745 | 0.475 | 0.208 | 0.198 | 0.157 | 0.812 | 0.628 | 0.379 |  |  |  | 0.568 | 0.549 | 0.366 | 0.236 | 0.456 | 0.315
NCI-H727 | 0.458 | 0.229 | 0.152 | 0.35 | 0.281 | 0.395 | 0.707 | 0.649 | 0.391 | 0.627 | 0.486 | 0.412 |  |  |  | 1.1 | 1.02 | 0.987
